Test results taken from patent US11299485B2, “Thiophene derivative and use thereof” (FUJIMOTO CO., LTD., priority 2018, dated 2022).

Key:
Format in all cases: cell-based
[1] = system: REC-1 cells; assay: Human mantle cell lymphoma cell line REC-1 proliferation suppression test; details: Rec1, 72 h, compound 10 μM, 3 days, WST-8, read-out: cell survival rate (% of control) REC-1
How it was run: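 Cells were plated at 1.3×10^5 cells/mL, and the next day test compound was added at a final 10 μM, with DMSO-only medium as control. After 3 days at 37° C under 5% CO2, proliferation was measured with WST-8.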

[2] = system: MM.1S cells; assay: Human myeloma cell line MM.1S proliferation suppression test; details: MM1.S, 72 h, compound 10 μM, 3 days, WST-1 or WST-8, read-out: cell survival rate (% of control) MM.1S
How it was run: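 Cells at 2×10^5 cells/mL in RPMI1640 + 10% FCS, mixed 1:1 with compound diluted from DMSO stock (final 10 μM) versus DMSO-only control. Cultured 3 days at 37 °C, 5% CO2; proliferation read with WST-1 or WST-8.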

[3] = system: human peripheral blood mononuclear cells (PBMC); assay: Cytotoxicity test using human peripheral blood mononuclear cells (PBMC); details: compound 10 μg/mL, LPS, 24 hr, WST-1 or WST-8
How it was run: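 Healthy-donor PBMC isolated by Lymphoprep density centrifugation were seeded at 5×10^5 cells/mL (stock density) with 10 μg/mL LPS stock and test compound at 10 μg/mL final. Cultured 24 hr at 37° C, 5% CO2; survival measured by WST-1 or WST-8 versus DMSO control.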

[4] = system: TNF-α production; assay: Human TNF-α production suppression test (LPS-stimulated peripheral blood mononuclear cells, ELISA); details: PBMC, compound 10 μg/mL, 24 hr, control well = 100, read-out: TNF-α production suppressive rate (%)
How it was run: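 PBMCs from healthy adult blood (Lymphoprep) were seeded at 5×10^5 cells/mL in RPMI1640 with 10% FCS, with test compound and LPS, for 24 hr at 37° C, 5% CO2. Supernatant TNF-α was measured by ELISA; suppression rate calculated against DMSO control wells set as 100.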

Question: What does the source list for Cl.O=C1CCC(n2cc(-c3cscc3OCc3ccc(CN4CCCCC4)cc3)nn2)C(=O)N1 (centres unmarked) [compound 42, 3-(4-{4-[4-(piperidin-1-ylmethyl)benzyloxy]thiophen-3-yl}-1H-1,2,3-triazol-1-yl)piperidine-2,6-dione hydrochloride]?
Answer: viability at 10 µM [1]: 13%; viability at 10 µM [2]: 27%; cell survival rate (% of control) PBMC [3]: 103 % of control; inhibition at 10 µg/mL [4]: 96%

Question: How did the viability at 10 µM [1] turn out when O=C1CCC(n2cc(-c3cscc3OCc3ccc(Cl)cc3)nn2)C(=O)N1 (centres unmarked) [compound 43, 3-{4-[4-(4-chlorobenzyloxy)thiophen-3-yl]-1H-1,2,3-triazol-1-yl}piperidine-2,6-dione] was run?
Answer: 23%

Question: And the viability at 10 µM [2]?
Answer: 30%

Question: What about the “cell survival rate (% of control) PBMC” value [3] of the same compound?
Answer: 98 % of control

Question: What about the inhibition at 10 µg/mL [4] of the same compound?
Answer: 87%

Question: For CC(Oc1cscc1-c1cn(C2CCC(=O)NC2=O)nn1)c1ccccc1 (centres unmarked) [compound 44, 3-{4-[4-(1-phenylethoxy)thiophen-3-yl]-1H-1,2,3-triazol-1-yl}piperidine-2,6-dione], which viability at 10 µM [1] is on record?
Answer: 30%

Question: And the viability at 10 µM [2]?
Answer: 33%

Question: And the “cell survival rate (% of control) PBMC” value [3]?
Answer: 105 % of control

Question: What about the inhibition at 10 µg/mL [4] of the same compound?
Answer: 79%

Question: Which results are given for Cl.O=C1CCC(n2cc(-c3cscc3OCc3ccc(CCN4CCOCC4)cc3)nn2)C(=O)N1 (centres unmarked) [compound 45, 3-(4-{4-[4-(2-morpholinoethyl)benzyloxy]thiophen-3-yl}-1H-1,2,3-triazol-1-yl)piperidine-2,6-dione hydrochloride]?
Answer: viability at 10 µM [1]: 26%; viability at 10 µM [2]: 31%; cell survival rate (% of control) PBMC [3]: 110 % of control; inhibition at 10 µg/mL [4]: 76%

Question: With CN(C)Cc1ccc(COc2cscc2-c2cn(C3CCC(=O)NC3=O)nn2)cc1.Cl (centres unmarked) [compound 46, 3-[4-(4-{4-[(dimethylamino)methyl]benzyloxy}thiophen-3-yl)-1H-1,2,3-triazol-1-yl]piperidine-2,6-dione hydrochloride] as the compound, how does the viability at 10 µM [1] read?
Answer: 23%

Question: And the viability at 10 µM [2]?
Answer: 35%

Question: What about the “cell survival rate (% of control) PBMC” value [3] of the same compound?
Answer: 110 % of control

Question: What about the inhibition at 10 µg/mL [4] of the same compound?
Answer: 80%

Question: What does the source list for O=C1CCC(n2cc(-c3cscc3OCc3cc4ccccc4s3)nn2)C(=O)N1 (centres unmarked) [compound 47, 3-{4-[4-(benzo[b]thiophen-2-ylmethoxy)thiophen-3-yl]-1H-1,2,3-triazol-1-yl}piperidine-2,6-dione]?
Answer: viability at 10 µM [1]: 33%; viability at 10 µM [2]: 64%; cell survival rate (% of control) PBMC [3]: 106 % of control; inhibition at 10 µg/mL [4]: 63%

Question: For O=C1CCC(n2nnc(-c3ccsc3)c2Br)C(=O)N1 (centres unmarked) [compound 48, 3-[5-bromo-4-(thiophen-3-yl)-1H-1,2,3-triazol-1-yl]piperidine-2,6-dione], which viability at 10 µM [1] is on record?
Answer: 98%

Question: And the viability at 10 µM [2]?
Answer: 85%

Question: And the “cell survival rate (% of control) PBMC” value [3]?
Answer: 138 % of control

Question: And the inhibition at 10 µg/mL [4]?
Answer: 51%

Question: COc1cscc1-c1nnn(C2CCC(=O)NC2=O)c1I (centres unmarked) [compound 49, 3-[5-iodo-4-(4-methoxythiophen-3-yl)-1H-1,2,3-triazol-1-yl]piperidine-2,6-dione] was tested. Which viability at 10 µM [1] did it give?
Answer: 24%

Question: What about the viability at 10 µM [2] of the same compound?
Answer: 48%

Question: What about the “cell survival rate (% of control) PBMC” value [3] of the same compound?
Answer: 102 % of control

Question: And the inhibition at 10 µg/mL [4]?
Answer: 79%
